3 compounds from patent US11358972B2, “Pentacyclic heterocycles” (Eisai R&D Management Co., Ltd., priority 2019, dated 2022) can be followed below.

Molecules are shown by their SMILES.

In test [1] the test system is Choline Acetyltransferase (ChAT) mRNA. In words: Measurement of choline acetyltransferase (ChAT) mRNA expression levels in the rat septal area. The following applies: po, SD male rats, medial septum, 24 hours after administration, read-out: Amount (%) increased from the amount of ChAT mRNA expression levels in the vehicle administration group; for change in vivo at 1 mg/kg: 1 mg/kg orally. The class given is in vivo. Here is the method: Measurement of Choline Acetyltransferase (ChAT) mRNA Expression Levels in the Rat Septal Area (1) Compound Administration
In this study, Sprague-Dawley male rats (Charles River Laboratories Japan, Inc.) with a body weight of about 250 to 350 g were used. The test compound was dissolved in 0.01 mol/L hydrochloric acid, and orally administered.
At 24 hours after the administration of the compound, the whole brain tissue was collected under pentobarbital anesthesia. The medial septum was isolated from whole brain on ice and frozen with liquid nitrogen, and then stored at −80° C.
(3) Measurement of ChAT mRNA Expression Levels
For RNA purification, RNeasy™ Plus Mini Kit (#74136: QIAGEN) was used in this study. RNA purification was performed by the method described in the kit After RNA purification, the total RNA concentration was measured by using QIAxpert Instrument (QIAGEN). cDNA was synthesized using SuperScript™ VILO™ cDNA Synthesis Kit (#11754: Thermo Fisher Scientific). The synthesis of cDNA was performed by the method described in the kit. The synthesized cDNA was diluted 4 times with RNase free water, and the diluted cDNA solution was used as a sample. Taqman™ Universal PCR Master Mix (#4304437: Thermo Fisher Scientific), Taqman™ Gene Expression Assays, INVENTORIED (#4331182: Thermo Fisher Scientific), RNase free water, and the cDNA solution were mixed in amounts of 10 μL, 1 μL, 4 μL, and 5 μL, respectively, and the resulting mixture was used as a measurement sample solution. Quantitative polymerase chain reaction (qPCR) was conducted using ABI PRISM™ 7900HT (Thermo Fisher Scientific) by a fluorescence probe method. Analysis was performed by SDS 2.4 (Thermo Fisher Scientific). The results were calculated by the percentage of the amount of ChAT mRNA expression levels in the compound administration group increased from the amount of ChAT mRNA expression levels in the vehicle administration group.

Test [2] concerns Rat primary septal neuron culture. In words: Measurement of acetylcholine (ACh) release in the rat primary septal neuron culture system. The class given is cell-based. The following applies: 24 h, rat primary septal neurons, with NGF, ACh release measured by HPLC one day after compound addition, read-out: Concentration (μM) showing a 20% or more increase from the amount of ACh in the control group. An excerpt: Measurement of Acetylcholine (ACh) Release in the Rat Primary Septal Neuron Culture System
(1) Rat Primary Septal Neuron Culture
The septal area was isolated from Sprague-Dawley (SD) rats (Charles River Laboratories Japan, Inc.) at a fetal age of 18 days, and cultured. Specifically, fetuses were removed from pregnant rats under isoflurane anesthesia. The brain was extracted from each fetus, and immersed in ice-cooled L-15 medium (11415-064, Thermo Fisher Scientific). The septal area was dissected from the extracted brain under a stereoscopic microscope. The dissected septal area was treated in 0.25% trypsin (15050-065, Thermo Fisher Scientific) and 0.01% DNase (D5025-150KU, Sigma) at 37° C. for 30 minutes, thereby dispersing the cells. In this case, the enzyme reaction was terminated by adding inactivated horse serum (26050-088, Thermo Fisher Scientific). The enzyme-treated solution was centrifuged at 1000 rpm for 3 minutes, and the supernatant was removed. A medium in an amount of 10 mL was added to the obtained cell mass. The medium used was Dulbecco's Modified Eagle's Medium (044-29765, WAKO) supplemented with N2 supplement (17502-048, Thermo Fisher Scientific), 1 mM sodium pyruvate (11360-070, Thermo Fisher Scientific), and Penicillin-Streptomycin (15140-1221, Thermo Fisher Scientific). The cells of the cell mass to which the medium was added were redispersed by gentle pipetting, and then centrifuged again at 1000 rpm for 3 minutes, and the supernatant was removed. The medium in an amount of 10 mL was added to the obtained cell mass, and the cell dispersion was filtered through a 40-μm nylon mesh (Cell Strainer) to remove the cell mass, thereby obtaining a neuronal cell suspension. The neuronal cell suspension was diluted with the medium, and 10% inactivated bovine serum (26140-079, Thermo Fisher Scientific) and 10% inactivated horse serum were added. Thereafter, 100 μL/well of the suspension was seeded in a 96-well plate (354461, CORNING) pre-coated with poly-D-lysine so that the initial culture density was 1.2×10^5 cells/cm^2. After the seeded cells were cultured under 5% CO2-95% air in a 37° C. incubator for 2 days, the entire medium was replaced with 120 μL of fresh medium, and the cells were subsequently cultured for 5 days.
On the 7th day of culture, compounds were added in the following manner. A solution of the test compound in DMSO was diluted with the medium so that the concentration was 10 times higher than the final concentration. Nerve Growth Factor (450-01, PEPRO TECH, INC.) was prepared at […]. These two solutions were added each in an amount of 15 μL/well, and the mixture was mixed well. The final DMSO concentration was 0.1% or less. Moreover, only DMSO and NGF were added to the control group.
(3) ACh Release Measurement
One day after the compound addition, an amount of ACh release was measured by HPLC in the following manner. A warmed buffer was added at 100 μL/well to the well after the medium was eliminated, and the buffer was immediately removed. Thereafter, a buffer to which 10 μm choline, 10 μm physostigmine, and 6 mM KCl were added was added at 120 μL/well. The buffer was prepared by adding 125 mM NaCl, 25 mM 4-(2-hydroxyethyl)-1-piperazineethanesulfonic acid, 1.2 mM KH2PO4, 1.2 mM MgSO4, 2.2 mM CaCl2 (2H2O), and 10 mM glucose to sterilized water, and the final pH of the solution was set to 7.4. After the 96-well plate to which the buffer was added was incubated under 5% CO2-95% air in a 37° C. incubator for 40 minutes, 80 μL of buffer was collected. An internal standard solution IPHC (5×10^−7 M) was added in an amount of 6 μL to the collected buffer, and the buffer was transferred to a tube for HPLC measurement and subjected to HPLC measurement. […]

For the compound `Cc1cc(C)c2c(n1)oc1c(=O)n3c(nc12)CN(C)C(=O)[C@H]1CCC[C@H]13` [Example 4, (3aS,14aR)-5,8,10-trimethyl-3,3a,5,6-tetrahydro-1H-cyclopenta[f]pyrido[3″,2″:4′,5′]furo[3′,2′:4,5]pyrimido[1,2-a][1,4]diazepine-4,13(2H,14aH)-dione], the change in vivo at 1 mg/kg in test [1] amounted to 51.5%. For the same compound, the minimal effective concentration in test [2] turned out to be 0.1 µM.
Consider `CN1Cc2nc3c(oc4cc(C(F)F)ccc43)c(=O)n2[C@@H]2CCC[C@@H]2C1=O` [Example 9], for which the change in vivo at 3 mg/kg in test [1] (3 mg/kg orally) was found to be 112%. Also, the minimal effective concentration in test [2] is 0.03 µM.
As for `CN1CCc2c(sc3nc4n(c(=O)c23)[C@H]2COC[C@H]2C(=O)N(C)C4)C1` [Example 11, (+)-(3a,14a-cis)-5,10-dimethyl-1,3,3a,5,6,9,10,11,12,14a-decahydrofuro[3,4-f]pyrido[4″,3″:4′,5′]thieno[2′,3′:4,5]pyrimido[1,2-a][1,4]diazepine-4,13-dione], the change in vivo at 1 mg/kg in test [1] was found to be 54.7%. The minimal effective concentration in test [2] was determined as 0.03 µM.
